# According to publication PMC5007466, “VCP recruitment to mitochondria causes mitophagy impairment and neurodegeneration in models of Huntington's disease” (Nature Communications, 2016):
# Legend:
# [1] = system: wild-type mouse striatal cells; experiment: GFP-LC3B association with mitochondria in cells expressing Flag-VCP; assay type: cell-based; settings: wt striatal cells, 36 h
# Procedure: Figure 5 Treatment of HV-3 reduces excessive mitophagy in HD cell cultures and HD mouse brains. (a) HdhQ7 and HdhQ111 cells were treated with control siRNA (con) or VCP siRNA (siVCP) for 48 h. Mitochondria were isolated and LC3 mitochondrial levels were determined by WB. Representative blots are from three independent experiments. The quantitation of LC3 II levels on mitochondria is provided on the right. VADC was used as a loading control. (b) Flag-VCP and GFP-LC3B were co-transfected into wild-type striatal cells. Mitochondria were isolated after 36 h of transfection. The GFP-LC3B levels on mitochondria were examined by WB. VDAC was used as a loading control. Representative blots are from three independent experiments. Histogram: quantitation of GFP-LC3B mitochondrial protein level. HdhQ7 and HdhQ111 cells were treated with control peptide TAT or peptide HV-3 (3 uM/day for 3 days). (c) HdhQ111 cells were transfected with GFP-LC3B for 24 h. The number of GFP-LC3B puncta was quantitated and shown in the histogram. […] (d) Enzyme activity of lysosomal Cathepsin B was measured using a Cathepsin B assay kit. […] (e) Mitochondrial mass was measured by the fluorescent density of Mitotracker green. […] Histogram: the number of mitophagosomes per 100 μm^2 was counted and quantitated. Fifteen random areas in the striatum of each animal were analyzed. […]
# Protein concentrations were determined by Bradford assay. […]
# [2] = system: HD patient-iPS cell derived neurons; experiment: Mitochondrial mass (Mitotracker green); assay type: cell-based, human; settings: 1 μM per day for 5 days
# Procedure: iPS cells from a normal subject and a HD patient (carrying 41 CAG repeats) were differentiated into neurons using the protocol from our previous studies. Briefly, iPS cells were plated onto 6-well plates precoated with 2.5% Matrigel and allowed to reach 90% confluence in feeder-free medium. For the first 10 days, cells were treated with SB431542 (10 μM; Tocris Bioscience) and Noggin (100 ng/ml) in Neural Media (NM) containing Neurobasal and DMEM (1:1), B27 supplement minus vitamin A (50 × , Invitrogen), N2 supplement (100 × , Invitrogen), GlutaMax (Invitrogen, 100 × ), FGF2 ([…]) and EGF ([…]), 100 units per ml penicillin and 100 μg ml^−1 streptomycin). […]
# To determine mitochondrial mass in cultures, cells were stained with antibodies against Tom20 or stained with Mitotracker green. The fluorescent density of Tom20 (1:500) or mitotracker green was quantitated using NIH Image J software. […] The images were visualized by microscope and quantitation of the density of red fluorescence was carried out using NIH ImageJ software. For immunocytochemistry study, at least 100 cells per group were counted and quantitated by an observer blind to experimental conditions.
# [3] = system: HdhQ111 / HdhQ7 mouse striatal cells; experiment: Mitochondrial membrane potential (TMRM), mouse striatal cells; assay type: cell-based
# Procedure: Immortalized striatal cell lines HdhQ111 mutant and HdhQ7 wt cells were obtained from the CHDI Foundation. Cells were cultured in DMEM supplemented with 10% FBS, 100 μg/ml penicillin, 100 μg ml^−1 streptomycin, and 400 μg ml^−1 G418. Cells were grown at 33 °C in a 5% CO2 incubator. Cells within 14 passages were used in all experiments.
# For silencing Htt and VCP in HD striatal cells, control siRNA, mouse Htt and mouse VCP siRNA were purchased from Thermo Fisher Scientific. HdhQ7 and HdhQ111 cells were transfected either with control siRNA, or Htt or VCP siRNA using TransIT-TKO Transfection Reagent (Mirus Bio, LLC), according to the manufacturer's instructions. The sequences for the siRNAs used in this study are as follows: mouse Htt, 5′-[…]-3′; Mouse VCP, 5′-GAGAGCAACCUUCGUAAG-3′; control non-targeting siRNA, 5′-TTCTCCGAACGTGTCACGT-3′.
# To determine mitochondrial mass in cultures, cells were stained with antibodies against Tom20 or stained with Mitotracker green. The fluorescent density of Tom20 (1:500) or mitotracker green was quantitated using NIH Image J software. To measure the membrane potential of mitochondria in cultures, cells were incubated with 0.25 μM tetra-methyl rhodamine (Invitrogen Life Science) for 20 min at 37 °C. To determine lysosomal activity, cells were incubated with Lyso-ID Red dye (Enzo Life Science) for 30 min at 37 °C. The images were visualized by microscope and quantitation of the density of red fluorescence was carried out using NIH ImageJ software. For immunocytochemistry study, at least 100 cells per group were counted and quantitated by an observer blind to experimental conditions.
structure (smiles),measurement,setting,value
CSCC[C@H](NC(=O)[C@@H](NC(=O)[C@H](CC(C)C)NC(=O)[C@@H](NC(=O)[C@H](Cc1c[nH]cn1)NC(=O)CCCCCNC(=O)[C@H](CCCNC(=N)N)NC(=O)[C@H](CCCNC(=N)N)NC(=O)[C@H](CCCNC(=N)N)NC(=O)[C@H](CCC(N)=O)NC(=O)[C@H](CCCNC(=N)N)NC(=O)[C@H](CCCNC(=N)N)NC(=O)[C@H](CCCCN)NC(=O)[C@H](CCCCN)NC(=O)[C@H](CCCNC(=N)N)NC(=O)CNC(=O)[C@@H](N)Cc1ccc(O)cc1)C(C)C)C(C)C)C(=O)N[C@@H](CS)C(=O)N[C@@H](C)C(=O)N[C@H](C(N)=O)[C@@H](C)O [HV-3],GFP-LC3B association with mitochondria,[1],could be inhibited by treatment with HV-3
same,mitochondrial mass,[2],corrected these aberrant events
same,mitochondrial membrane potential,"[3]; HdhQ111 cells, HV-3 3 uM/day for 3 days versus TAT",markedly improved the mitochondrial membrane potential
same,mitochondrial membrane potential in presence of VCP siRNA,"[3]; HdhQ111 cells, HV-3 + VCP siRNA",no additional protection on the MMP
same,"mitochondrial membrane potential, wt",[3]; wt counterparts of the HD models,only minor effects
